pIC50: −log10 of the molar value.

This test has as its target T1, Human HPK1, catalytic domain (Homo sapiens, UniProt Q92918).
T1 construct: purchased Cama (so in the source)
T1 sequence (Q92918 1-346): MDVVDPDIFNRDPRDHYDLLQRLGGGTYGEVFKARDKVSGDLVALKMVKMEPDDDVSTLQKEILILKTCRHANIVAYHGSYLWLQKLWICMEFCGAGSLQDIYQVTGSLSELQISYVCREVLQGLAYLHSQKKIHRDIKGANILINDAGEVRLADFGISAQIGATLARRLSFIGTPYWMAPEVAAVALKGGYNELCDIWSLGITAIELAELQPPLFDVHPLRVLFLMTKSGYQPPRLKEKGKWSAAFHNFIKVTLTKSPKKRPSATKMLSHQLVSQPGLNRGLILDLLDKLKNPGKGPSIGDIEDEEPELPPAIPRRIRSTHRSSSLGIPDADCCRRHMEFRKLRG
Nature of the test: HPK1-SLP76 TR-FRET assay. It counts as biochemical. Conditions: HPK1 kinase domain 0.075 nM; full length SLP-76 10 nM; ATP 10 μM; 30 min preincubation; 60 min reaction; room temperature. Background: TR-FRET usually uses a lanthanide donor and a delayed reading to cut background.
For the molecule `Cc1c(-c2cc3nc(Nc4cnn(C)c4C)ncc3c(N)c2F)cnc2c1NCCO2` [Example 2-30, N~2~-(1,5-dimethyl-1H-pyrazol-4-yl)-6-fluoro-7-(8-methyl-2,3-dihydro-1H-pyrido[2,3-b][1,4]oxazin-7-yl)quinazoline-2,5-diamine], the pIC50 was 10.29.

In the case of `CCn1ncc(Nc2ncc3c(N)c(F)c(-c4cnc5c(c4C)NCCO5)cc3n2)c1C` [Example 2-16, N~2~-(1-ethyl-5-methyl-1H-pyrazol-4-yl)-6-fluoro-7-(8-methyl-2,3-dihydro-1H-pyrido[2,3-b][1,4]oxazin-7-yl)quinazoline-2,5-diamine], the pIC50 was 9.29.

With `Cc1cc(Nc2ncc3c(N)c(F)c(-c4cnc5c(c4C)NCCO5)cc3n2)sn1` [Example 2-17, 6-fluoro-7-(8-methyl-2,3-dihydro-1H-pyrido[2,3-b][1,4]oxazin-7-yl)-N~2~-(3-methyl-1,2-thiazol-5-yl)quinazoline-2,5-diamine], the pIC50 is 9.42.

In turn, `Cc1c(-c2ccc3cnc(Nc4cnn(C5COC5)c4)nc3c2)cnc2c1NCCO2` [Example 1-1, 7-(8-methyl-2,3-dihydro-1H-pyrido[2,3-b][1,4]oxazin-7-yl)-N-[1-(oxetan-3-yl)-1H-pyrazol-4-yl]quinazolin-2-amine] had a pIC50 of 8.92.

The molecule `Cc1c(-c2cc3nc(Nc4cnn(C(F)F)c4C)ncc3c(N)c2F)cnc2c1NCCO2` [Example 2-29, N~2~-[1-(difluoromethyl)-5-methyl-1H-pyrazol-4-yl]-6-fluoro-7-(8-methyl-2,3-dihydro-1H-pyrido[2,3-b][1,4]oxazin-7-yl)quinazoline-2,5-diamine] had a negative logarithm of the IC50 (pIC50) of 10.00.

As for `Cc1c(-c2cc3nc(Nc4cnn(CC(C)(C)O)c4Cl)ncc3c(N)c2F)cnc2c1NCCO2` [Example 2-18, 1-(4-{[5-amino-6-fluoro-7-(8-methyl-2,3-dihydro-1H-pyrido[2,3-b][1,4]oxazin-7-yl)quinazolin-2-yl]amino}-5-chloro-1H-pyrazol-1-yl)-2-methypropan-2-ol], the pIC50 was 8.70.

`Cc1c(-c2cc3nc(Nc4cnn([C@H]5CCN(C)C5)c4)ncc3c(N)c2F)cnc2c1NCCO2` [Example 2-47, (S)-6-fluoro-7-(8-methyl-2,3-dihydro-1H-pyrido[2,3-b][1,4]oxazin-7-yl)-N2-(1-(1-methylpyrrolidin-3-yl)-1H-pyrazol-4-yl)quinazoline-2,5-diamine]: the negative logarithm of the IC50 (pIC50) was 9.75.

In the case of `CCn1ncc(Nc2ncc3c(N)c(F)c(-c4cnc5c(c4C)NCCO5)cc3n2)c1F` [Example 2-38, N~2~-(1-ethyl-5-fluoro-1H-pyrazol-4-yl)-6-fluoro-7-(8-methyl-2,3-dihydro-1H-pyrido[2,3-b][1,4]oxazin-7-yl)quinazoline-2,5-diamine], the negative-log IC50 (pIC50) was 9.24.

`CNC(=O)C12CC(n3cc(Nc4ncc5c(N)c(F)c(-c6cnc7c(c6C)NCCO7)cc5n4)cn3)(C1)C2` [Example 2-28, 3-(4-{[5-amino-6-fluoro-7-(8-methyl-2,3-dihydro-1H-pyrido[2,3-b][1,4]oxazin-7-yl)quinazolin-2-yl]amino}-1H-pyrazol-1-yl)-N-methylbicyclo[1.1.1]pentane-1-carboxamide]: the pIC50 was 10.03.

With `Cc1c(-c2cc3nc(Nc4cnn(C5(C)CC5)c4)ncc3c(N)c2F)cnc2c1NCCO2` [Example 2-8, 6-fluoro-N~2~-[1-(1-methylcyclopropyl)-1H-pyrazol-4-yl]-7-(8-methyl-2,3-dihydro-1H-pyrido[2,3-b][1,4]oxazin-7-yl)quinazoline-2,5-diamine], the pIC50 was 10.06.

Molecule `Cc1c(-c2ccc3cnc(Nc4cc5n(n4)CCN(CC(C)(C)O)C(=O)C5)nc3c2)cnc2c1NCCO2` [Example 1-8, 6-(2-hydroxy-2-methylpropyl)-2-((7-(8-methyl-2,3-dihydro-1H-pyrido[2,3-b][1,4]oxazin-7-yl)quinazolin-2-yl)amino)-7,8-dihydro-4H-pyrazolo[1,5-d][1,4]diazepin-5(6H)-one] had a pIC50 of 9.17.

Take `Cc1c(-c2cc3nc(Nc4cnn(C5CC5)c4Cl)ncc3c(N)c2F)cnc2c1NCCO2` [Example 2-25, N~2~-(5-chloro-1-cyclopropyl-1H-pyrazol-4-yl)-6-fluoro-7-(8-methyl-2,3-dihydro-1H-pyrido[2,3-b][1,4]oxazin-7-yl)quinazoline-2,5-diamine]: the negative-log IC50 (pIC50) was 9.31.

`Cc1c(-c2cc3nc(Nc4cnn(C5CC5)c4)ncc3c(N)c2F)cnc2c1NCCO2` [Example 2-9, N~2~-(1-cyclopropyl-1H-pyrazol-4-yl)-6-fluoro-7-(8-methyl-2,3-dihydro-1H-pyrido[2,3-b][1,4]oxazin-7-yl)quinazoline-2,5-diamine] showed a negative logarithm of the IC50 (pIC50) of 9.85.

`Cc1c(-c2cc3nc(Nc4cnn([C@@H]5CCN(C)C5)c4)ncc3c(N)c2F)cnc2c1NCCO2` [Example 2-48, (R)-6-fluoro-7-(8-methyl-2,3-dihydro-1H-pyrido[2,3-b][1,4]oxazin-7-yl)-N2-(1-(1-methylpyrrolidin-3-yl)-1H-pyrazol-4-yl)quinazoline-2,5-diamine] had a pIC50 of 9.78.

Molecule `Cc1c(-c2ccc3cnc(Nc4cc5n(n4)CC(=O)N(C)CC54CC4)nc3c2)cnc2c1NCCO2` [Example 1-4, 6′-methyl-2′-{[7-(8-methyl-2,3-dihydro-1H-pyrido[2,3-b][1,4]oxazin-7-yl)quinazolin-2-yl]amino}-5′,6′-dihydrospiro[cyclopropane-1,4′-pyrazolo[1,5-d][1,4]diazepin]-7′(8′H)-one] showed a pIC50 of 8.28.

In turn, `Cc1c(-c2cc3nc(Nc4cnn5c4CCC5)ncc3c(N)c2F)cnc2c1NCCO2` [Example 2-35, N~2~-(5,6-dihydro-4H-pyrrolo[1,2-b]pyrazol-3-yl)-6-fluoro-7-(8-methyl-2,3-dihydro-1H-pyrido[2,3-b][1,4]oxazin-7-yl)quinazoline-2,5-diamine] had a pIC50 of 10.29.

Molecule `CCn1cc(Nc2ncc3c(N)c(F)c(-c4cnc5c(c4C)NCCO5)cc3n2)cn1` [Example 2-22, N~2~-(1-ethyl-1H-pyrazol-4-yl)-6-fluoro-7-(8-methyl-2,3-dihydro-1H-pyrido[2,3-b][1,4]oxazin-7-yl)quinazoline-2,5-diamine] had a pIC50 of 10.12.

With `Cc1nn(C(C)C)cc1Nc1ncc2c(N)c(F)c(-c3cnc4c(c3C)NCCO4)cc2n1` [Example 2-33, 6-fluoro-7-(8-methyl-2,3-dihydro-1H-pyrido[2,3-b][1,4]oxazin-7-yl)-N~2~-[3-methyl-1-(propan-2-yl)-1H-pyrazol-4-yl]quinazoline-2,5-diamine], the pIC50 is 8.46.

For the molecule `CNC(=O)C(C)(C)n1cc(Nc2ncc3c(N)c(F)c(-c4cnc5c(c4C)NCCO5)cc3n2)cn1` [Example 2-41, 2-(4-{[5-amino-6-fluoro-7-(8-methyl-2,3-dihydro-1H-pyrido[2,3-b][1,4]oxazin-7-yl)quinazolin-2-yl]amino}-1H-pyrazol-1-yl)-N,2-dimethylpropanamide], the negative-log IC50 (pIC50) is 9.08.

Take `Cc1c(-c2cc3nc(Nc4cnn(Cc5ccccc5)c4)ncc3c(N)c2F)cnc2c1NCCO2` [Example 2-12, N~2~-(1-benzyl-1H-pyrazol-4-yl)-6-fluoro-7-(8-methyl-2,3-dihydro-1H-pyrido[2,3-b][1,4]oxazin-7-yl)quinazoline-2,5-diamine]: the negative-log IC50 (pIC50) is 8.55.

Consider `Cc1c(-c2cc3nc(Nc4cnn(C)c4)ncc3c(N)c2F)cnc2c1NCCO2` [Example 2-10, 6-fluoro-7-(8-methyl-2,3-dihydro-1H-pyrido[2,3-b][1,4]oxazin-7-yl)-N~2~-(1-methyl-1H-pyrazol-4-yl)quinazoline-2,5-diamine], for which the pIC50 is 9.89.

With `Cc1c(-c2cc3nc(Nc4cnn(CC5CC5)c4)ncc3c(N)c2F)cnc2c1NCCO2` [Example 2-6, N~2~-[1-(cyclopropylmethyl)-1H-pyrazol-4-yl]-6-fluoro-7-(8-methyl-2,3-dihydro-1H-pyrido[2,3-b][1,4]oxazin-7-yl)quinazoline-2,5-diamine], the negative logarithm of the IC50 (pIC50) is 9.85.

With `Cc1c(-c2ccc3cnc(Nc4cnn(C5CC6(C5)CN(C5(C)COC5)C6)c4)nc3c2)cnc2c1NCCO2` [Example 1-2, 7-(8-methyl-2,3-dihydro-1H-pyrido[2,3-b][1,4]oxazin-7-yl)-N-{1-[2-(3-methyloxetan-3-yl)-2-azaspiro[3.3]heptan-6-yl]-1H-pyrazol-4-yl}quinazolin-2-amine], the pIC50 is 9.66.

`Cc1c(-c2cc3nc(Nc4cnn(C5CCN(C)C5=O)c4)ncc3c(N)c2F)cnc2c1NCCO2` (single isomer, unassigned) [Example 2-21, (S or R)-3-(4-{[5-amino-6-fluoro-7-(8-methyl-2,3-dihydro-1H-pyrido[2,3-b][1,4]oxazin-7-yl)quinazolin-2-yl]amino}-1H-pyrazol-1-yl)-1-methylpyrrolidin-2-one] showed a pIC50 of 9.46.

Molecule `Cc1c(-c2ccc3cnc(Nc4cnn(C)c4)nc3c2)cnc2c1NCCO2` [Example 1-5, 7-(8-methyl-2,3-dihydro-1H-pyrido[2,3-b][1,4]oxazin-7-yl)-N-(1-methyl-1H-pyrazol-4-yl)quinazolin-2-amine] showed a negative-log IC50 (pIC50) of 9.15.

In turn, `Cc1nsc(Nc2ncc3c(N)c(F)c(-c4cnc5c(c4C)NCCO5)cc3n2)c1Cl` [Example 2-36, N~2~-(4-chloro-3-methyl-1,2-thiazol-5-yl)-6-fluoro-7-(8-methyl-2,3-dihydro-1H-pyrido[2,3-b][1,4]oxazin-7-yl)quinazoline-2,5-diamine] gave a pIC50 of 9.55.

`Cc1c(-c2cc3nc(Nc4cnn(C5CC6(C5)CN(C5(C)COC5)C6)c4)ncc3c(N)c2F)cnc2c1NCCO2` [Example 2-2, 6-fluoro-7-(8-methyl-2,3-dihydro-1H-pyrido[2,3-b][1,4]oxazin-7-yl)-N~2~-{1-[2-(3-methyloxetan-3-yl)-2-azaspiro[3.3]heptan-6-yl]-1H-pyrazol-4-yl}quinazoline-2,5-diamine] showed a pIC50 of 9.85.

What is called pIC50 is the negative decadic logarithm of the IC50, by convention in mol/L. Low readings indicate a large IC50, high ones a small IC50.
